One assay has as its system Jurkat cells. Kind of assay: CellTiterGlo cell viability assay. Format: cell-based, human. As to conditions: Homo sapiens, 24 h, mean of triplicates, ^b/^c values estimated, read-out: IC50±sd/μM (cell viability). The method, then:
The effects of the compounds on cell viability was determined using the CellTiter-Glo® 2.0 Cell Viability Assay (Promega: G9241) following manufacturer’s protocol. Ten µL of Jurkat cells at […]
After equilibration, PROTACs were titrated at various concentrations using an Echo acoustic […]
volume of CellTiter-Glo® 2.0 reagent (10 µL) was added to each well and cells were incubated for 10 minutes at room temperature. Filtered luminescence was measured on a PHERAstar plate reader (BMG Labtech) and data was evaluated using GraphPad Prism 9 software employing a normalized curve it with the following equation: Y=Bottom + (Top-Bottom)/(1+10(LogEC50-X) *HillSlope).
Sample preparation. Jurkat cells (ATCC © HTB-22) were cultured in RPMI (Thermo: […]

In assay [1] the target is T1, kinase protein levels in MCF-7 cells (Homo sapiens, UniProt A0A0B4J2F0).
T1 construct: endogenous in cells; host or cells: MCF-7
T1 sequence (A0A0B4J2F0 1-54): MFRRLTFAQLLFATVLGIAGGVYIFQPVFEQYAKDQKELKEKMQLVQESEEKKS
Kind of assay: TMT-labeled quantitative proteomics. Particulars: protein PIGBOS1; MCF7; 1 µM; set1.1. Format: cell-based. Here is the method: (§1) 50 µl of SDS Lysis Buffer (2% SDS, 50 mM TRIS pH 8.5, 10 mM TCEP, 40 mM CAA) was added to each sample. Cells were transferred into low binding reaction tubes (Eppendorf:
(§2) Methanol/Chloroform Precipitation. 200 µl of methanol and 50 µl of chloroform were added to each sample reaction tube and mixed via vortex. 150 µl of milliQ-H2O were added and samples were vortexed further. Samples were centrifuged for 5 minutes at 15000 g and the aqueous layer above the interphase was removed. 150 µl of methanol was added, samples were vortexed and centrifuged for 10 minutes at 15000 g to precipitate the pellet. The aforementioned wash procedure was repeated twice before transferring the pellet to a new low bind reaction tube in which it was allowed to dry for 5 minutes.
(§3) Dissolving the Protein Pellet and Protein Quantification. 50 µl of digestion buffer (8 M Urea, 50 mM TRIS pH 8) was added to each sample before vortexing and shaking at 750 rpm at room temperature for 10 minutes to solubilize the pellet. Protein quantification via PierceTM […]
(§4) Protein Digestion. Samples were diluted 1:2 with 50 mM TRIS pH 8.5 to reach a final concentration of 4 M Urea. Lys-C (Promega: VA1170) was added at a 1:100 enzyme/substrate ratio. Samples were agitated at 550 rpm and 37 °C for 3 h. Samples were further diluted with 50 mM TRIS pH 8.5 to a final concentration of 1 M Urea and Trypsin (Promega: V5280) was added at a 1:100 enzyme/substrate ratio. Samples were agitated overnight at 550 rpm and 37 °C. The digestion was stopped the following day via addition of TFA to a final concentration […]
(§5) Solid Phase Extraction via C18 Cartridges. Sep-Pak C18 Cartridges (Waters: WAT054955) were used for solid phase extraction of digested peptides. For preconditioning of C18 cartridges, 1 mL of methanol was added to each column followed by 1 mL of solution B (0.1% formic acid, 80% acetonitrile) and 1 mL of solution A (0.1% formic acid, ddH2O) twice. Samples […]
(§6) were loaded to their respective columns and once samples had passed, columns were washed twice with solution A to remove unwanted components from the loading step. Elution of samples was carried out via introduction of 40% and 60% acetonitrile steps. Samples were dried and snap frozen in liquid nitrogen.
(§7) TMT-Labeling. Desalted peptides were dried and resuspended in TMT-labeling buffer (200 mM EPPS pH 8.2, 20% acetonitrile). 10 μg of peptides per condition were subjected to TMT labeling with 1:2.5 peptide TMT ratio (w/w) for 1 h at room temperature. The labeling reaction was quenched by addition of hydroxylamine to a final concentration of 0.5% and incubation at room temperature for 15 minutes. Successful TMT labeling was verified by mixing equimolar ratios of peptides and subjecting the mix to single shot LC-MS/MS analysis. For high pH reversed phase fractionation on a Dionex analytical HPLC, 50 µg of pooled and purified TMT labelled samples were resuspended in 10 mM ammonium-bicarbonate (ABC), 5% acetonitrile, and separated on a 250 mm long C18 column (Aeris Peptide XB-C18, 4.6 mm ID, 2.6 µm particle size; Phenomenex) using a multistep gradient from 100% solvent A (5% acetonitrile, 10 mM ABC in water) to 60% solvent B (90% acetonitrile, 10 mM ABC in water) over 70 minutes. Eluting peptides were collected every 45 seconds into a total of 96 fractions, which were cross-concatenated into 24 fractions and dried in a vacuum concentrator and resuspended in 3% acetonitrile with 0.1% TFA for LC-MS analysis.
(§8) Mass spectrometry data acquisition. Tryptic peptides were analyzed on an Orbitrap Lumos coupled to an easy nLC 1200 (ThermoFisher Scientific) using a 35 cm long, 75 µm ID fused-silica column packed in house with 1.9 µm C18 particles (Reprosil pur, Dr. Maisch), and kept at 50 °C using an integrated column oven (Sonation). HPLC solvents consisted of 0.1% formic acid in water (buffer A) and 0.1% formic acid and 80% acetonitrile in water (buffer B). Assuming

Assay [2] relates to kinase protein levels in MCF-7 cells. In words: TMT-labeled quantitative proteomics. The assay is classed as cell-based, human. Particulars: for log2FC (compound/DMSO): MCF7, 1 µM, set1.1. The method, then:
as §1, §2, §3, §4, §5, §6, §7, §8

Assay [3] has as its system kinase protein levels in Jurkat cells. In words: TMT-labeled quantitative proteomics. The assay is classed as cell-based, human. As to conditions: Jurkat, 1 µM, set1.2. The method, then: cultured in RPMI (Thermo: 11875093) supplemented as mentioned above. Cells were seeded in 6 well plates (Greiner: 657160) at a cell density of 1·10 6 cells/well and left at 37 °C and 5% […]
as §1
0030108116) and samples were boiled for 15 minutes at 95 °C and sonicated for 2 minutes.
as §2
Dissolving the Protein Pellet and Protein Quantification. 50 µl of digestion buffer (8 M Urea, 50 mM TRIS pH 8) was added to each sample before vortexing and shaking at 750 rpm at room temperature for 10 minutes to solubilize the pellet. Protein quantification via PierceTM BCA Protein Assay Kit (Thermo: 23225) was carried out according to manufacturer’s protocol.
as §4, §5, §6
TMT-Labeling. Desalted peptides were dried and resuspended in TMT-labeling buffer (200 mM EPPS pH 8.2, 20% acetonitrile). 10 μg of peptides per condition were subjected to TMT labeling with 1:2.5 peptide TMT ratio (w/w) for 1 h at room temperature. The labeling reaction was quenched by addition of hydroxylamine to a final concentration of 0.5% and incubation at room temperature for 15 minutes. Successful TMT labeling was verified by mixing equimolar ratios of peptides and subjecting the mix to single shot LC-MS/MS analysis. For high pH reversed phase fractionation on a Dionex analytical HPLC, 50 µg of pooled and purified TMT labelled samples were resuspended in 10 mM ammonium-bicarbonate (ABC), 5% acetonitrile, […]
particle size; Phenomenex) using a multistep gradient from 100% solvent A (5% acetonitrile, 10 mM ABC in water) to 60% solvent B (90% acetonitrile, 10 mM ABC in water) over 70 minutes. Eluting peptides were collected every 45 seconds into a total of 96 fractions, which were cross-concatenated into 24 fractions and dried in a vacuum concentrator and resuspended in 3% acetonitrile with 0.1% TFA for LC-MS analysis.
Mass spectrometry data acquisition. Tryptic peptides were analyzed on an Orbitrap Lumos coupled to an easy nLC 1200 (ThermoFisher Scientific) using a 35 cm long, 75 µm ID fused-

For the next assay, the target named is VHL (Homo sapiens, UniProt P40337). Kind of assay: NanoBRET target engagement assay. As to conditions: permeabilized cells. On the technique in general: In BRET a luciferase serves as donor, and the signal depends on an acceptor being close.
Chain of VHL (P40337 whole entry): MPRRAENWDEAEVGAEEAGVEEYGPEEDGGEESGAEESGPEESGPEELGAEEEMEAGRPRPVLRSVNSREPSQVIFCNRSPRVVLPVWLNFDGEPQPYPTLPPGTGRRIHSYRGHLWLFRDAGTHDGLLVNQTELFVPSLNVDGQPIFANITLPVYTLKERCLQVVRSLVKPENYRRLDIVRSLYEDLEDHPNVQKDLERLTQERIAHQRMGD

Experimental for VHL: Compounds were pipetted at various concentrations using an Echo acoustic dispenser (Labcyte), immediately followed by Tracer K10 (Promega, Tracer DB ID: T000008) for AAK1 and Aurora A and VHL Tracer (Promega, Tracer DB ID: T000019) for VHL, at an optimum KD concentration chosen from TracerDB ( tracerdb.org), respectively.
To measure the BRET signal, the NanoBRET® NanoGlo Substrate (Promega:
N1573) was added as per the manufacturer’s protocol, and filtered luminescence was measured on a PHERAstar plate reader (BMG Labtech) equipped with a luminescence filter pair (450 nm BP filter (donor) and 610 nm LP filter (acceptor)). For NanoBRET® measurement in permeabilized cells, 25 nL of digitonin (0.05 μg/μL) was pipetted into each well using an
After incubation, the BRET signals were measured by a PHERAstar plate reader (BMG Labtech) following the same procedure as intact NanoBRET® measurement. Competitive displacement data were then normalized to controls and were plotted using GraphPad Prism 9 software employing a normalized 3-parameter curve fit with the following equation:

For `Cc1ncsc1-c1ccc(CNC(=O)[C@@H]2C[C@@H](O)CN2C(=O)[C@@H](NCCOCCOCCOCCOCCC(=O)N2CCN(c3ccc(Nc4ncc(Cl)c(Nc5ccccc5C(N)=O)n4)cc3)CC2)C(C)(C)C)cc1` [6-c], the IC50 with Jurkat cells was 8.5 ± 0.8 µM. Besides, the “P.Value (compound/DMSO)” value in assay [1] worked out at 0.867. In addition, the “log2FC (compound/DMSO)” value is -0.01736 in assay [1]; -0.692 in assay [2] (protein NBPF19;NBPF15;NBPF8;NBPF10;NBPF26;NBPF14); -0.0761 in assay [2] (protein NUDT4); 0.05309 in assay [3] (protein NUDT4); -0.1563 in assay [3] (protein PIGBOS1); -0.1064 in assay [3] (protein TRAV8-2). In assay [3] (protein TRBV12-3;TRBV12-4), the “log2FC (compound/DMSO)” value is listed as -0.03811. Further, the kinase degradation entry in assay [2] (MCF-7 cells, 1 μM, 6 h) is “did not result in significant degradation of any kinase”. Further, the VHL binding result on VHL is “did not bind strongly to VHL”.
